# Data as given in patent publication US6828320B2, “Heterocyclic compounds” (SmithKline Beecham Corporation, priority 1996, dated 2004).
# Where a name gives a salt, the structure may show the parent alone. Read-outs that look alike come from different tables or passages of the source.
# Key:
# [1] = molecular target: T1, c-erbB-2 (baculovirus expressed, recombinant intracellular domain) (Homo sapiens, UniProt P04626); assay: Substrate phosphorylation assay, c-erbB-2; assay type: biochemical; conditions: read-out: Substrate Phosphorylation erbB-2
# T1 construct: baculovirus expressed, recombinant constructs of the intracellular domains of c-erbB-2 and c-erbB-4; made in house
# Procedure: (§1) The substrate phosphorylation assays use baculovirus expressed, recombinant constructs of the intracellular domains of c-erbB-2 and c-erbB-4 that are constitutively active and EGFr isolated from solubilised A431 cell membranes. The method measures the ability of the isolated enzymes to catalyse the transfer of the γ-phosphate from ATP onto tyrosine residues in a biotinylated synthetic peptide (Biotin-[…]. […] The reaction is stopped by the addition of EDTA (final concentration 0.15 mM) and a sample is transferred to a streptavidin-coated 96-well plate. The plate is washed and level of phosphotyrosine on the peptide is determined using a Europium-labelled antiphosphotyrosine antibody and quantified with a time-resolved fluorescence technique.
# [2] = molecular target: T2, c-erbB-4 (baculovirus expressed, recombinant intracellular domain) (Homo sapiens, UniProt Q15303); assay: Substrate phosphorylation assay, c-erbB-4; assay type: biochemical
# T2 construct: baculovirus expressed, recombinant constructs of the intracellular domains of c-erbB-2 and c-erbB-4; made in house
# Procedure: as §1
# [3] = molecular target: HB4a cell line transformed by over-expression of c-erbB-2 (Homo sapiens, UniProt P04626); assay: Cell proliferation assay, HB4a erbB-2; assay type: cell-based; conditions: 4 days at 37° C., methylene blue staining; read-out: Cell Proliferation HB4a erbB-2
# Procedure: The cell proliferation assay uses an immortalised human breast epithelial cell line (HB4a) which has been transformed by over-expression of c-erbB-2. Growth of these cells in low serum is dependent upon the c-erbB-2 tyrosine kinase activity. […] Cells are plated at 3000/ well in 96-well plates in 0.1 ml medium and allowed to attach overnight. test compound is added in 0.1 ml medium, with a final concentration of 0.5% DMSO, and the plates incubated for 4 days at 37° C. The cells are then examined microscopically for evidence of morphological detransformation and cell mass is estimated by staining with methylene blue and measuring the absorbance at 620 nm. […] Activity against a range of naturally occurring EGFr or c-erbB-2 over-expressing human tumour cell lines (BT474-breast, HN5-head and neck, N87-gastric and Calu3-lung) is assessed with selected compounds by the same methodology.
# [4] = test system: HB4a cell line transfected with ras; assay: Cell proliferation assay, HB4a ras; assay type: cell-based, human; conditions: 4 days at 37° C., methylene blue staining, general toxicity control, read-out: Cell Proliferation HB4a ras
# [5] = test system: Calu3-lung tumour cell line; assay: Cell proliferation assay, Calu3; assay type: cell-based, human; conditions: same methodology, 4 days
# Procedure: (§2) The cell proliferation assay uses an immortalised human breast epithelial cell line (HB4a) which has been transformed by over-expression of c-erbB-2. Growth of these cells in low serum is dependent upon the c-erbB-2 tyrosine kinase activity. The specificity of the effect of the test compounds on tyrosine kinase dependent growth over general toxicity is assessed by comparison to an HB4a cell line which has been transfected with ras. Cells are plated at 3000/ well in 96-well plates in 0.1 ml medium and allowed to attach overnight. test compound is added in 0.1 ml medium, with a final concentration of 0.5% DMSO, and the plates incubated for 4 days at 37° C. The cells are then examined microscopically for evidence of morphological detransformation and cell mass is estimated by staining with methylene blue and measuring the absorbance at 620 nm. The results are shown in Table 1 below as the IC50 values in nM. Activity against a range of naturally occurring EGFr or c-erbB-2 over-expressing human tumour cell lines (BT474-breast, HN5-head and neck, N87-gastric and Calu3-lung) is assessed with selected compounds by the same methodology. The results are also shown in Table 1 below as the IC50 values in nM.
# [6] = test system: HN5-head and neck tumour cell line; assay: Cell proliferation assay, HN5; assay type: cell-based, human; conditions: same methodology, 4 days
# Procedure: as §2
# [7] = molecular target: T3, EGFr isolated from solubilised A431 cell membranes (Homo sapiens, UniProt P00533); assay: Substrate phosphorylation assay, EGFr; assay type: biochemical
# T3 construct: EGFr isolated from solubilised A431 cell membranes; endogenous in cells; host or cells: A431 cell membranes (solubilised)
# Procedure: as §1
# [8] = test system: BT474-breast tumour cell line; assay: Cell proliferation assay, BT474; assay type: cell-based, human; conditions: same methodology, 4 days
# Procedure: as §2
# [9] = test system: N87-gastric tumour cell line; assay: Cell proliferation assay, N87; assay type: cell-based, human; conditions: same methodology, 4 days
# Procedure: as §2
# [10] = 30 minutes, room temperature, ATP and peptide at Km concentrations
# T1 sequence (P04626 676-1255 limits assumed): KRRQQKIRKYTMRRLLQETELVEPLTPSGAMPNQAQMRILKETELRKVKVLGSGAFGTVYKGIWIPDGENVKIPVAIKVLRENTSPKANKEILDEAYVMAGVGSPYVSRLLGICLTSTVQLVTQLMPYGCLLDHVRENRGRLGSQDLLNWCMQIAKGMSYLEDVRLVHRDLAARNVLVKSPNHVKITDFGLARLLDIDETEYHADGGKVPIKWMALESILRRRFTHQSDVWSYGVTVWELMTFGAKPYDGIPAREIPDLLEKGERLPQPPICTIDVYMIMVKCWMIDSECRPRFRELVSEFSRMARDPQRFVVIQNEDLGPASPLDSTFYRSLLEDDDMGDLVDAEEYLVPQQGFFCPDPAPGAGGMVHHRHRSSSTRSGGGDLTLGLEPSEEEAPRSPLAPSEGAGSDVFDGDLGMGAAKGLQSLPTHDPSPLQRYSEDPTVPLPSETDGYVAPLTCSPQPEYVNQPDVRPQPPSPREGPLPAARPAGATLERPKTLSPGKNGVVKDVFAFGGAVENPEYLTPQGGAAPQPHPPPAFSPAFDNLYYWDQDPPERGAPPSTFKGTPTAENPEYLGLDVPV
# T3 sequence (P00533 25-1210): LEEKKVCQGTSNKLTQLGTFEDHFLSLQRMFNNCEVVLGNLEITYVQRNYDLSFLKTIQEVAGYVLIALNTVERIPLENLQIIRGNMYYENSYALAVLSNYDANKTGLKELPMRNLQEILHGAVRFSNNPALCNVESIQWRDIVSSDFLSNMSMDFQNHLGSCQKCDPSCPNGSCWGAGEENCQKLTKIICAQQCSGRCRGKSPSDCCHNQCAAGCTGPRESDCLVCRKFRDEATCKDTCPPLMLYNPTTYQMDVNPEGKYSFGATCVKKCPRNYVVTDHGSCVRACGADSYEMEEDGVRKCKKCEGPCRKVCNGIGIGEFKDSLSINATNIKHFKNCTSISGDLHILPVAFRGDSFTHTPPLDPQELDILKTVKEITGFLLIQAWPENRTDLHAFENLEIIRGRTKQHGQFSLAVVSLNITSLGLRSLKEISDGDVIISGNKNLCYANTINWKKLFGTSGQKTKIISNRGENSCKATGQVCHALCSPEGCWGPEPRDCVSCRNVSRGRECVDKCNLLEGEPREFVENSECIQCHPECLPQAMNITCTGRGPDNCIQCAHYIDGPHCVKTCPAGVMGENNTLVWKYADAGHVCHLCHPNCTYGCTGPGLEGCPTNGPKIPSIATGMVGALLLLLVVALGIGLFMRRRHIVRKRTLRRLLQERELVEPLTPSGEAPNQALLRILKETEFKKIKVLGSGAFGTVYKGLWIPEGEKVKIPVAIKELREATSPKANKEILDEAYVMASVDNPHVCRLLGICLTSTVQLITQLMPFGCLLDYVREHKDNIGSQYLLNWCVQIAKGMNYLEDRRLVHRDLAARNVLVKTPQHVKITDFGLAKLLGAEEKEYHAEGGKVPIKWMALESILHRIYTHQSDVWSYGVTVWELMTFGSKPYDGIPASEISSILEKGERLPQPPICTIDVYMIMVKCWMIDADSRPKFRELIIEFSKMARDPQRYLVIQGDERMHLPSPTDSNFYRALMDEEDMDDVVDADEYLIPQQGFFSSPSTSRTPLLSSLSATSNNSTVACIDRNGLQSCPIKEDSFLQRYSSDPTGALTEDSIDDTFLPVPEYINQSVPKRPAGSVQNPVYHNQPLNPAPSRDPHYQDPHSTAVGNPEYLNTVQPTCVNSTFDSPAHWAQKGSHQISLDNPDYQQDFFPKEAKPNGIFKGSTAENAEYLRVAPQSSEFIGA
# Sequence of HB4a cell line transformed by over-expression of c-erbB-2 (P04626 whole entry, change not shown): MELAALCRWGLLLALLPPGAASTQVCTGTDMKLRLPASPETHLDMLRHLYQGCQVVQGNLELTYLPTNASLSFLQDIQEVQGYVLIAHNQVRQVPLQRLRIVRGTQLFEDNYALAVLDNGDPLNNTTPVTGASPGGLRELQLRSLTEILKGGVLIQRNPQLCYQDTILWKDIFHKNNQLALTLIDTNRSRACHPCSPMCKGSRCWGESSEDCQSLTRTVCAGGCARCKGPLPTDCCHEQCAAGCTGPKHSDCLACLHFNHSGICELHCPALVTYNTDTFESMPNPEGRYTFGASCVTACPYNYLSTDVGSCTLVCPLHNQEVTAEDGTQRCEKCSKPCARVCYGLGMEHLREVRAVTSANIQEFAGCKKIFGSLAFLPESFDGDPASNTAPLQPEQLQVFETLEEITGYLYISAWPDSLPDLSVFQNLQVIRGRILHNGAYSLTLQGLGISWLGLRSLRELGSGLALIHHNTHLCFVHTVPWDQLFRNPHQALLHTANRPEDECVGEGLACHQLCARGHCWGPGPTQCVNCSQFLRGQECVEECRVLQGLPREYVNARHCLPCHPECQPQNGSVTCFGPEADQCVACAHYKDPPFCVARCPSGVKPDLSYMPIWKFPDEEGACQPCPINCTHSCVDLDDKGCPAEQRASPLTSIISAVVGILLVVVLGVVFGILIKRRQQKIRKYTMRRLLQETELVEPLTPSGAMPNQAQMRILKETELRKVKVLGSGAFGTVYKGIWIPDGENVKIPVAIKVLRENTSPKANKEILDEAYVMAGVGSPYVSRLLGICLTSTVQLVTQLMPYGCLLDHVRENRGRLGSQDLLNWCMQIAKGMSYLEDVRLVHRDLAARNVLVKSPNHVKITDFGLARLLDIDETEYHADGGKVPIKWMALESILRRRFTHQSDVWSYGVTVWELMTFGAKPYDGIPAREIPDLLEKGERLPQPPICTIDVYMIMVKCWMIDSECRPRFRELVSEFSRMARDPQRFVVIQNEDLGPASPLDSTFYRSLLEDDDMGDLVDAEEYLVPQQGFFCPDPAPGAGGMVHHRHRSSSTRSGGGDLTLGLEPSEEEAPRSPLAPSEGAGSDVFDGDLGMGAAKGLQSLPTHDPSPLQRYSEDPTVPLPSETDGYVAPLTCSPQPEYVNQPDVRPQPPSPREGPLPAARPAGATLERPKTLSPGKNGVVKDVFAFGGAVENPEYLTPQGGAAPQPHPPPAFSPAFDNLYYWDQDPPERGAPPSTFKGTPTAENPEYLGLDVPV
# T2 sequence (Q15303 676-1308 limits assumed): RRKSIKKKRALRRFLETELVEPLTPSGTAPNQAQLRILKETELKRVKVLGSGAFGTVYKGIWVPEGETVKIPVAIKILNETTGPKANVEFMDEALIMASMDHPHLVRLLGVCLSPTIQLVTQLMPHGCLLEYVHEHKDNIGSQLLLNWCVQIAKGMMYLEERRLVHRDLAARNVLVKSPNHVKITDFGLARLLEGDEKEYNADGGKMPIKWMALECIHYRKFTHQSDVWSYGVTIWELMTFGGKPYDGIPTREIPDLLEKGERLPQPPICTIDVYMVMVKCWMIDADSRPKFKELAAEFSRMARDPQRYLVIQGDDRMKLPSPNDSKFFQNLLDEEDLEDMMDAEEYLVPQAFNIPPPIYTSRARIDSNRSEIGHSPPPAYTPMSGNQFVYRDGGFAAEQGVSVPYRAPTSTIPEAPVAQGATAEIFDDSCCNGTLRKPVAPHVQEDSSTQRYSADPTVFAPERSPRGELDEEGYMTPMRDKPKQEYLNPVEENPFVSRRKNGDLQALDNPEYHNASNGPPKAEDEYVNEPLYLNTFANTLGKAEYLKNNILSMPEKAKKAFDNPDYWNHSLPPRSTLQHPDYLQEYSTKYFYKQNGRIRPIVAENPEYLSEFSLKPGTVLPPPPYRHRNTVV
IC50 [1],IC50 [2],GI50 [3],"IC50 ([5]; Homo sapiens, Calu-3, 96 h)","IC50 ([6]; Homo sapiens, 96 h)","IC50 [7, 10]",Compound,"IC50 ([4]; Homo sapiens, HB4a, 96 h)",also measured
20 nM,320 nM,400 nM,780 nM,1400 nM,–,c1ccc(COc2ccc(Nc3ncnc4ccc(-c5ccc(C6OCCO6)o5)cc34)cc2)cc1 [Example 5],19000 nM,–
110 nM,1000 nM,1600 nM,5800 nM,5200 nM,680 nM,"Cn1cncc1-c1ccc2ncnc(Nc3ccc(OCc4ccccc4)cc3)c2c1 [Example 6, (4-Benzyloxy-phenyl)-(6-(3-methyl-3H-imidazol-4-yl)-quinazolin-4-yl)-amine]",16000 nM,"IC50 ([8]; Homo sapiens, BT-474, 96 h): 1900 nM; IC50 ([9]; Homo sapiens, 96 h): 1800 nM"
52 nM,780 nM,1500 nM,2200 nM,2100 nM,–,CN1CCN(Cc2ccc(-c3ccc4ncnc(Nc5ccc(OCc6ccccc6)cc5)c4c3)o2)CC1 [Example 10],7100 nM,–
34 nM,1200 nM,680 nM,–,–,–,"c1ccc(COc2ccc(Nc3ncnc4ccc(-c5ccc(CNc6cccnc6)o5)cc34)cc2)cc1 [Example 14, (4-Benzyloxy-phenyl)-(6-(5-(pyridin-3-ylaminomethyl)-furan-2-yl)quinazolin-4-yl)-amine]",5000 nM,IC50 [7]: 200 nM
–,–,430 nM,2200 nM,910 nM,8 nM,"Cc1nnc(-c2ccc3ncnc(Nc4ccc5c(cnn5Cc5cccc(F)c5)c4)c3c2)o1 [Example 22, (1-(3-Fluorobenzyl)-1H-indazol-5-yl)-(6-(5-methyl-1,3,4-oxadiazol-2-yl)-quinazolin-4-yl)-amine hydrochloride]",27000 nM,"IC50 ([8]; Homo sapiens, BT-474, 96 h): 97 nM; IC50 ([9]; Homo sapiens, 96 h): 600 nM"
2 nM,–,17000 nM,–,–,15 nM,"Cc1nnc(-c2ccc3ncnc(Nc4ccc5c(cnn5Cc5cccc(F)c5F)c4)c3c2)o1 [Example 24, (1-(2,3-Difluorobenzyl)-1H-indazol-5-yl)-(6-(5-methyl-1,3,4-oxadiazol-2-yl)quinazolin-4-yl)-amine hydrochloride]",> 50000 nM,–
15 nM,–,750 nM,–,–,22 nM,"Cc1nnc(-c2ccc3ncnc(Nc4ccc(OCc5ccccc5F)c(Cl)c4)c3c2)o1 [Example 25, (3-Chloro-4-(2-fluoro-benzyloxy)-phenyl)-(6-(5-methyl-1,3,4-oxadiazol-2-yl)-s-quinazolin-4-yl)-amine hydrochloride]",> 50000 nM,–
10 nM,–,6500 nM,–,–,47 nM,"Cc1nnc(-c2ccc3ncnc(Nc4ccc(OCc5ccccc5)cc4)c3c2)o1 [Example 27, (4-Benzyloxy-phenyl)-(6-(5-methyl-1,3,4-oxadiazol-2-yl)-quinazolin-4-yl)-amine hydrochloride]",50000 nM,–
7 nM,–,5300 nM,–,–,50 nM,"Cc1nnc(-c2ccc3ncnc(Nc4ccc(OCc5ccccc5F)cc4)c3c2)o1 [Example 28, (4-(2-Fluoro-benzyloxy)-phenyl)-(6-(5-methyl-1,3,4-oxadiazol-2-yl)-quinazolin-4-yl)-amine hydrochloride]",> 50000 nM,"IC50 ([9]; Homo sapiens, 96 h): 8200 nM"
6 nM,–,5400 nM,18000 nM,–,38 nM,"Cc1nnc(-c2ccc3ncnc(Nc4ccc(S(=O)(=O)c5ccccc5)cc4)c3c2)o1 [Example 30, (4-Benzenesulphonyl-phenyl)-(6-(5-methyl-1,3,4-oxadiazol-2-yl)-quinazolin-4-yl)-amine hydrochloride]",50000 nM,–
100 nM,–,500 nM,–,–,13 nM,c1ccc(Cn2ncc3cc(Nc4ncnc5ccc(-c6noc(Cc7cccnc7)n6)cc45)ccc32)cc1 [Example 62],3700 nM,–

# Second part, the compound before the results:
Compound,IC50 [1],IC50 [2],GI50 [3],"IC50 ([5]; Homo sapiens, Calu-3, 96 h)","IC50 ([6]; Homo sapiens, 96 h)","IC50 [7, 10]","IC50 ([4]; Homo sapiens, HB4a, 96 h)",also measured
"c1ccc(COc2ccc(Nc3ncnc4ccc(-c5cccs5)cc34)cc2)cc1 [Example 2, (4-Benzyloxy-phenyl)-(6-(thiophen-2-yl)-quinazolin-4-yl)-amine]",21 nM,500 nM,1000 nM,4600 nM,26000 nM,–,8300 nM,–
"C1=C(c2ccc3ncnc(Nc4ccc(OCc5ccccc5)cc4)c3c2)OCC1 [Example 7, (4-Benzyloxy-phenyl)-(6-(2,3-dihydrofuran-5-yl)-quinazolin-4-yl)-amine]",36 nM,1500 nM,1300 nM,4700 nM,5500 nM,–,12000 nM,–
"CCN(CCN(C)C)Cc1ccc(-c2ccc3ncnc(Nc4ccc(OCc5ccccc5)cc4)c3c2)o1 [Example 13, N-(5-(4-(4-Benzyloxy-phenylamino)-quinazolin-6-yl)-furan-2-ylmethyl)-N-ethyl-N′,N′-dimethyl-ethane-1,2-diamine]",350 nM,2300 nM,450 nM,–,–,300 nM,2200 nM,–
"c1ccc(COc2ccc(Nc3ncnc4ccc(-c5ccc(CNCC6CCCO6)o5)cc34)cc2)cc1 (centres unmarked) [Example 15, (4-Benzyloxy-phenyl)-(6-(5-(((tetrahydro-furan-2-ylmethyl)-amino)-methyl)-furan-2-yl)-quinazolin-4-yl)-amine hydrochloride]",50 nM,2300 nM,2600 nM,–,–,540 nM,3200 nM,–
"NC(=O)[C@@H]1CCCN1Cc1ccc(-c2ccc3ncnc(Nc4ccc5c(cnn5Cc5ccccc5)c4)c3c2)o1 [Example 18, (S)-1-(5-(4-(1-Benzyl-1H-indazol-5-ylamino)-quinazolin-6-yl)-furan-2-ylmethyl)-pyrrolidine-2-carboxylic acid amide dihydrochloride]",45 nM,34 nM,9 nM,360 nM,840 nM,–,> 50000 nM,"IC50 ([8]; Homo sapiens, BT-474, 96 h): 2 nM; IC50 ([9]; Homo sapiens, 96 h): 180 nM"
"Cc1nnc(-c2ccc3ncnc(Nc4ccc(OCc5cccc(F)c5)c(Cl)c4)c3c2)o1 [Example 26, (3-Chloro-4-(3-fluoro-benzyloxy)-phenyl)-(6-(5-methyl-1,3,4-oxadiazol-2-yl)-quinazolin-4-yl)-amine hydrochloride]",7 nM,–,650 nM,–,–,18 nM,> 50000 nM,–
"Cc1nnc(-c2ccc3ncnc(Nc4ccc(OCc5cccc(F)c5)cc4)c3c2)o1 [Example 29, hydrochloride]",–,–,2500 nM,–,–,23 nM,–,"IC50 [1, 10]: 3 nM; IC50 [4]: > 50000 nM; IC50 [8]: 770 nM; IC50 [9]: 2400 nM; IC50 [5]: 23000 nM; IC50 [6]: 4400 nM"
"Cn1cncc1-c1ccc2ncnc(Nc3ccc4c(cnn4Cc4ccccc4)c3)c2c1 [Example 38, (1-Benzyl-1H-indazol-5-yl)-(6-(3-methyl-3H-imidazol-4-yl)-quinazolin-4-yl)-amine]",88 nM,520 nM,–,–,–,140 nM,–,–
